This is an account of results in US8138314B2, “Compositions and methods of monoclonal and polyclonal antibodies specific for T cell subpopulations” (Beth Israel Deaconess Medical Center, Inc., priority 2000, dated 2012).

In experiment [1] the test system is invariant NK T cells. Briefly: 6B11 FACS sort or magnetic bead immunoaffinity purification of PBMC followed by expansion. The format is cell-based, human. Particulars: for Yield of invariant T cells: addition during expansion of 6B11 bead purified cells (FIGS. 12-17). As for the experimental part: Starting with PBMC in which approximately 0.05% of the lymphocytes in PBMC are invariant T cells, approximately 5-30% of the purified and expanded cells were invariant T cells.
PBMC or another tissue source is blocked with autologous serum at 4° C. An antibody reactive with invariant T cells (e.g., 6B11 or 3A6 antibody) is added at a ratio of about 1-10 μg antibody/10^7-8 PBMC and incubated for 20 minutes at 4° C. The antibody used in this method may be directly labeled with a conjugate such as FITC or biotin, or the antibody may be indirectly labeled with second reagent (e.g., anti-IgG-Fluorochrome or streptavidin-Fluorochrome). One or more other antibodies labeled with different fluorophores may also be added (FIGS. 7A-7C and 9). The solution of cells and antibodies is then washed using PBS or any other physiological buffer to remove unbound antibody.
If desired, the settings of the FACS cell sorter may be adjusted using either a positive (e.g., general anti-T cell antibody) or negative control antibody. The sample of interest may be analyzed at a rate of approximately 100 million cells per hour using a high speed FACS sorter (e.g., ‘MoFlo’FACS sorter). The purified T cells may be expanded in T cell media [e.g., 10% Fetal Bovine or human autologous or AB pooled serum in RPMI-1640 or equivalent media supplemented with buffer (e.g. Hepes), glutamine, and antibiotic (e.g., gentamicin)] in the presence of a mitogen such as PHA, an anti-CD3 antibody, the 6B11 antibody, the 3A6 antibody, and/or α-GalCer antigenic stimulus CD3 monoclonal antibody (Exley et al. 1997 and 1998, supra; Wilson et al., Nature 391:177, 1998). The antibody may be in solution or plate bound. Irradiated autologous feeders and IL-2 (10-100 U/ml) may also be added immediately or added at any time point during expansion. IL-7 (˜1-10 ng/ml) and/or IL-15 (˜1-10 ng/ml) may increase invariant NK T cells yields (e.g. Wilson et al. 1998, supra; van der Vliet et al. Journal of Immunological Methods 247:61-72, 2000). Dexamethasone or a related selective immune suppressive agent (˜1 μM) may preferentially enhance the growth of invariant NK T cells while inhibiting growth of conventional T cells (e.g. Milner et al., J. Immunol. 163(5):2522-25229, 1999). The media is replaced about twice a week with fresh media. During or subsequent to expansion (e.g., 2-4 weeks after expansion has begun), the T cells may be phenotypically analyzed by FACS. This analysis may be performed by staining with 6B11, anti-Vα24, anti-Vβ11, anti-CD4, anti-CD8αβ, or anti-CD161 antibodies.
PBMC or another tissue source is blocked with 1-10% autologous serum by mixing at 4° C. in PBS or other physiological buffer. One or more antibodies that are reactive with invariant T cells (e.g., 6B11 or 3A6 antibody) is added at a ratio of about 1-10 μg monoclonal antibody/10^7-8 PBMC is incubated for 20 minutes at 4° C. The antibody used in this method may be directly labeled with a conjugate such as FITC or biotin or the antibody may be indirectly labeled with second reagent (e.g., anti-IgG-Fluorochrome or streptavidin-Fluorochrome). One or more other antibodies labeled with different fluorophores may also be added (FIGS. 7A-7C and 9). The solution of cells and antibodies is then washed using PBS or any other physiological buffer. Magnetic beads, such as ˜10-100 μl Miltenyi MACS Microbeads Anti-mouse IgG #484 or MACS Steptavidin Microbeads #481 per 10^7-8 PBMC; 10^5-7 Dynal Anti-IgG #M450 beads per 10^7-8 PBMC are added and the solution is mix at 4° C. […] The washed, purified cells are placed into multi-wells with T cell media [10% Fetal Bovine or human autologous or AB pooled serum in RPMI-1640 or equivalent media supplemented with buffer (e.g. Hepes), glutamine, and antibiotic (e.g. gentamicin)]. The cells may be expanded using a monoclonal antibody that is directly bound to the beads or in solution. […]

The test system of experiment [2] is Vα24^+ Vβ11^+ invariant NK T cells. Briefly: Ex vivo expansion of FACS purified Vα24^+ T cells with α-GalCer and autologous irradiated PBMCs, flow cytometry. The format is cell-based, human. How it is done:
Peripheral blood (10-20 ml) was drawn in heparin containing tubes from healthy donors and prostate cancer patients who had given their informed consent. PBMCs were isolated using Ficoll-Paque (Amersham Pharmacia, Uppsala, Sweden). Vα24 positive T cells were stained with an anti-Vα24 monoclonal antibody (C15) (Coulter, Miami, Fla.) followed by a goat anti-mouse IgG (H^+L) FITC conjugate (KPL, Gaithersburg, Md.) and were sorted by high speed FACS (Modular Flow FACS, Cytomation, Boulder, Colo.) (Dellabona et al., J. Exp. Med. 180:1171, 1994). Autologous PBMCs were irradiated (5000 rads) and used as APCs. The FACS purified Vα24^+ cells were initially co-cultured in 96 well flat bottomed plates (approximately 20,000 per well) with equal numbers of autologous irradiated PBMCs in the presence of α-GalCer (50 ng/ml, KRN7000, Kirin Brewery Co., Gunma, Japan) and recombinant IL-2 (100 U/ml) (National Cancer Institute, Bethesda, Md.). Cultures were then gradually expanded into 24 well plates using the same medium. In some cultures, human recombinant IL-12 (1 ng/ml) (Genetics Institute, Cambridge, Mass.) was added during the last week of culture.
Phenotypic analysis of α-GalCer expanded cells was performed by two or three color flow cytometery after three to four weeks in culture. Previous reports have shown that dual staining for Vα24 and Vβ11 is a marker of invariant NK T cells, as Vα24 and Vβ11 are used very infrequently by bulk T cells (Dellabona et al., J. Exp. Med. 180:1171, 1994; Exley et al., J. Exp. Med. 186:109, 1997; Prussin and Foster J. Immunol. 159:5862, 1997). Antibodies used were anti-Vα24 PE, anti-Vβ11 FITC, anti-CD8β PE (Immunotech), anti-CD3 Cychrome, anti-CD161 PE, and anti-CD4 Cychrome (PharMingen, La Jolla, Calif.). As described previously (Exley et al., J. Exp. Med. 186:109, 1997; Exley et al., J. Exp. Med. 188:867, 1998), approximately 1×10^6 cells were suspended in 50 μl of FACS buffer (phosphate buffered saline with 1% fetal bovine serum and 0.1% NaN3) in single wells of 96 well plates (Exley et al., J. Exp. Med. 186:109, 1997; Exley et al, J. Exp. Med. 188:867, 1998). Non-specific antibody binding was blocked by pre-incubating cells with 10% human serum for 15 minutes on ice. Antibodies were then added to cell suspensions and incubated for 20 minutes on ice. Cells were washed twice with FACS buffer and analyzed using a FACScan (Becton Dickinson) with Cell Quest Software.
Due to the small numbers of invariant NK T cells in peripheral blood, one round of ex vivo expansion was carried out to further assess the frequency and function of these cells. Invariant NK T cells from healthy donors and advanced prostate cancer patients were isolated from peripheral blood through an initial FACS purification with a Vα24 specific monoclonal antibody, followed by selective expansion in vitro for three to four weeks with α-GalCer and autologous irradiated PBMCs as a source of APCs. T cells were then analyzed by dual staining with Vα24 and Vβ11 or 6B11 monoclonal antibodies.
In general terms: In flow cytometry, cells or beads pass a laser one at a time.

[3] abbreviates: expansion using α-GalCer after expansion using 6B11.
[4] abbreviates: addition during expansion, at the concentrations tested (FIGS. 12-17).

Take `CCCCCCCCCCCCCCCCCCCCCCCCCC(=O)N[C@@H](CO[C@H]1O[C@H](CO)[C@H](O)[C@H](O)[C@H]1O)[C@H](O)[C@H](O)CCCCCCCCCCCCCC` [α-GalCer, α-galactosylceramide]: in experiment [1] (setting [3]), the “Number of invariant T cells” value is recorded as “did increase the number of invariant T cells”. Moreover, the “Purity of invariant T cells” value in experiment [1] (setting [3]) was “did not improve the purity of invariant T cells”. Besides, the “Invariant NK T cells among expanded cells” value in experiment [2] (androgen ablation refractory prostate cancer patient (FIG. 21B)) stood at 13.6%; in experiment [2] (androgen ablation treated prostate cancer patient in remission (FIG. 21C)) it was 75%; in experiment [2] (healthy donor (FIG. 21A)), 98.5%. Also, the “Vα24^+ Vβ11^+ population of total cells” value in experiment [2] (healthy donor, α-GalCer and autologous irradiated PBMCs (FIG. 20B)) is 94.4%. Also, the “Recovery of Vα24^+ Vβ11^+ invariant NK T cells, mean” value is reported as over 80% in experiment [2] (healthy donors (FIG. 21D)) and 10% in experiment [2] (series of advanced androgen independent prostate cancer patients (FIG. 21D)). In experiment [2] (series of healthy donors, each donor), the “Expanded Vα24^+ Vβ11^+ T cells expressing CD161” value was over 70%.

As for “IL-15: cytokine added to T cell medium at 10 ng/ml”, the “Yield of invariant T cells” value in experiment [1] was “increased the yield of invariant T cells”. In addition, the “Purity of invariant T cells” value in experiment [1] (setting [4]) is “did not increase the purity of invariant T cells”.

Consider phytohemagglutinin [PHA], for which the “Vα24^+ Vβ11^+ T cell population after stimulation” value in experiment [2] (FACS purified Vα24^+ T cells stimulated with mitogen (FIG. 20A)) was “yielded only a minor population of Vα24^+ Vβ11^+ T cells”.

B1: IL-7: cytokine added to T cell medium at 10 ng/ml (protein, UniProt P13232 26-177, looked up)
Interleukin-7: DCDIEGKDGKQYESVLMVSIDQLLDSMKEIGSNCLNNEFNFFKRHICDANKEGMFLFRAARKLRQFLKMNSTGDFDLHLLKVSEGTTILLNCTGQVKGRKPAALGEAQPTKSLEENKSLKEQKKLNDLCFLKRLLQEIKTCWNKILMGTKEH
As for B1, the “Yield of invariant T cells” value in experiment [1] is on record as “increased the yield of invariant T cells”. Further, the “Purity of invariant T cells” value in experiment [1] (setting [4]) is listed as “did not increase the purity of invariant T cells”.
